Key:
Assay type in all cases: in vivo
[1] = test system: rice seedlings (hybrid rice variety ADT45); experiment: Phytotoxicity assessments at Ramapuram trial; details: Ramapuram
Method: For each trial, hybrid rice variety ADT45 was sown in seedling boxes. A compound of formula (Ia) was applied by foliar spray in the form of an EC formulation, at various dose rates and seedling growth stages as shown in Table 1. [table] […] The trial was carried out between 5 Aug. 2015 and 9 Sep. 2015, with transplanting on 15 Aug. 2015. The mean maximum daily temperature during the trial period was 35.3° C., and mean minimum daily temperature during the trial period was 23.7° C. The mean temperature during the entire trial period was 30.2° C.

[2] = test system: rice under heat stress; experiment: Yield in 2016 trial (Trial 3)
[3] = test system: rice seedlings (hybrid rice variety ADT45) under heat stress; experiment: NVDI by Green Seeker crop sensor, Kumbakonam trial; design: key: NVDI as percentage green area (Green Seeker)
Text: Trials were setup in two locations in India to test the effect of compounds of formula I on tolerance of rice seedlings to heat stress during transplantation.
For each trial, hybrid rice variety ADT45 was sown in seedling boxes. A compound of formula (Ia) was applied by foliar spray in the form of an EC formulation, at various dose rates and seedling growth stages as shown in Table 1.
Transplanting took place at the […] growth stage. Transplant shock was used as an indicator of tolerance to heat stress, and was measured via visual assessment of damage severity on a scale of 0% (no damage) to 100% (dead plant); observations such as yellowing and leaf tip burning are indicators of damage. Transplant shock was also assessed by measuring NVDI values using a Green Seeker™ crop sensor, which measures the percentage green area. A low transplant shock stress rating and high NVDI rating indicate improved tolerance to transplant shock stress.
The trial was carried out between 7 May 2015 and 15 Jun. 2015, with transplanting on 29 May 2015. The mean maximum daily temperature during the trial period was 37.3° C., and mean minimum daily temperature during the trial period was 24.9° C. The mean temperature during the entire trial period was 31.1° C.

[4] = treatment 6: 10 g ai/ha, 2-leaf
[5] = treatment 7: 20 g ai/ha, 2-leaf
[6] = treatment 9: 10 g ai/ha, 3-leaf
[7] = treatment 10: 20 g ai/ha, 3-leaf
[8] = treatment 3: 10 g ai/ha, Sowing
[9] = treatment 5: 10 g ai/ha, 2-leaf
[10] = treatment 7: 10 g ai/ha, 3-leaf
[11] = treatment 2: 5 g ai/ha, Pigeon-breast
[12] = treatment 3: 10 g ai/ha, Pigeon-breast
[13] = treatment 4: 20 g ai/ha, Pigeon-breast

## COc1cccc(Nc2nc(F)nc3[nH]cnc23)c1 [Formula Ia]
[1]; [4]
  Uniformity of foliage growth at 3.2 leaf: 90%
  Uniformity of greening at 3.2 leaf: 95%
  Whiteness of root mat at 3.2 leaf: 85%
[1]; [5]
  Greenness at 3.2 leaf: 2.5 unit
  Seedling height at 3.2 leaf: 15 cm
  Seedling injury: 5%
  Time to 3.2 leaf: 13 days
  Uniformity of foliage growth at 3.2 leaf: 90%
  Uniformity of greening at 3.2 leaf: 85%
  Whiteness of root mat at 3.2 leaf: 80%
[1]; treatment 8: 5 g ai/ha, 3-leaf
  Greenness at 3.2 leaf: 3 unit
  Seedling height at 3.2 leaf: 14 cm
  Seedling injury: 0%
  Time to 3.2 leaf: 13 days
  Uniformity of foliage growth at 3.2 leaf: 90%
  Uniformity of greening at 3.2 leaf: 95%
  Whiteness of root mat at 3.2 leaf: 90%
[1]; [6]
  Greenness at 3.2 leaf: 3 unit
  Seedling height at 3.2 leaf: 15 cm
  Seedling injury: 0%
  Time to 3.2 leaf: 13 days
  Uniformity of foliage growth at 3.2 leaf: 90%
  Uniformity of greening at 3.2 leaf: 95%
  Whiteness of root mat at 3.2 leaf: 90%
[1]; [7]
  Greenness at 3.2 leaf: 3 unit
  Seedling height at 3.2 leaf: 15 cm
  Seedling injury: 0%
  Time to 3.2 leaf: 13 days
  Uniformity of foliage growth at 3.2 leaf: 90%
  Uniformity of greening at 3.2 leaf: 95%
  Whiteness of root mat at 3.2 leaf: 90%
[2]; treatment 2: 5 g ai/ha, Sowing
  Average yield increase compared to UTC: +2.9%
  Yield at 14% MC: 6799 kg/ha
[2]; [8]
  Average yield increase compared to UTC: −0.1%
  Yield at 14% MC: 6603 kg/ha
[2]; treatment 4: 5 g ai/ha, 2-leaf
  Average yield increase compared to UTC: +6.2%
  Yield at 14% MC: 7014 kg/ha
[2]; [9]
  Average yield increase compared to UTC: +8.8%
  Yield at 14% MC: 7189 kg/ha
[2]; treatment 6: 5 g ai/ha, 3-leaf
  Average yield increase compared to UTC: +5.6%
  Yield at 14% MC: 6978 kg/ha
[2]; [10]
  Average yield increase compared to UTC: +3.3%
  Yield at 14% MC: 6830 kg/ha
[3]; [11]
  NVDI data (10 DAT): 12
  NVDI data (15 DAT): 19
[3]; [12]
  NVDI data (10 DAT): 6
  NVDI data (15 DAT): 19
[3]; [13]
  NVDI data (10 DAT): 10
  NVDI data (15 DAT): 20
[3]; treatment 5: 5 g ai/ha, 2-leaf
  NVDI data (10 DAT): 13
  NVDI data (15 DAT): 22
[3]; [4]
  NVDI data (10 DAT): 12
  NVDI data (15 DAT): 20
[3]; [5]
  NVDI data (10 DAT): 11
  NVDI data (15 DAT): 19
[3]; treatment 8: 5 g ai/ha, 3-leaf
  NVDI data (10 DAT): 10
  NVDI data (15 DAT): 19
[3]; [6]
  NVDI data (10 DAT): 15
  NVDI data (15 DAT): 18
[3]; [7]
  NVDI data (10 DAT): 15
  NVDI data (15 DAT): 20

Reference: patent publication US10798943B2, “Use of 6-anilino purine derivatives to improve heat stress tolerance of rice seedlings” (SYNGENTA PARTICIPATIONS AG, priority 2016, dated 2020)
